Structure (SMILES)	logP
O=[N+]([O-])c1cc[n+]([O-])cc1	-0.55
Cc1cnnc2cc(Cl)ccc12	1.98
CC(=O)Nc1ccc(S(=O)(=O)F)cc1	2.17
CC(C)c1cc([N+](=O)[O-])cc([N+](=O)[O-])c1O	3.1
CNC(=S)NCCSCc1c[nH]cn1	0.16
Nc1ccccc1I	2.32
CC(C)CC(=O)NC(N)=O	0.45
Clc1ccc(Cl)nc1	2.4
CSCC(=O)C=NO	1.21
CC(=O)c1ccc(O)cc1	1.35
CN(C)C(=S)NN	-0.3
Nc1ccc(Cl)cc1C(=O)O	1.57
OCC1CC1c1ccccc1 (configuration not stated)	1.95
CN1C(=O)C(=O)c2ccccc21	0.58
O=[N+]([O-])c1cn[nH]c1	0.59
Cc1ccccc1C#N	2.21
O=C1CN=C(c2ccccc2C(F)(F)F)c2ccccc2N1	2.47
CCCCCCNC(=O)c1ccc(S(N)(=O)=O)cc1	2.05
COC(OC)(OC)c1ccccc1	2.27
CSCS(=O)CC(C)NC(=O)C=Cc1c(C)[nH]c(=O)[nH]c1=O (configuration not stated)	-0.7
Cn1c(N)nc2cc(Cl)c(Cl)cc21	2.98

Structure (SMILES)	logP
O=c1[nH]cnc2n[nH]nc12	-1.97
c1ccc(-c2cc3ccccn3c2)cc1	4.29
COc1ccccc1NS(=O)(=O)c1ccc(N)cc1	1.56
c1ccc2sccc2c1	3.12
CC(=O)c1cccc([N+](=O)[O-])c1	1.42
COC(=O)Cc1ccccc1	1.83
CNC(=O)Oc1ccccc1C1OCCO1	0.67
C[C@]12CC[C@H](O)C[C@H]1CC[C@@H]1[C@@H]2CC[C@]2(C)[C@@H](C3=CC(=O)OC3)CC[C@]12O	2.64
O=C(NCC(O)CO)c1c(I)c(N(CCO)C(=O)CO)c(I)c(N(CCO)C(=O)CO)c1I (configuration not stated)	-2.55
CNC(=O)c1ccoc1	0.34
CNC(=S)NCc1ccccc1	1.35
CN(C)C1=CC(=O)C(N(C)C)=CC1=O	1.03
CNC(=O)Oc1ccccc1[N+](=O)[O-]	1.02
Clc1ccc2ccccc2c1Cl	4.42
O=Cc1ccsc1	1.01
C1OC1CN1CCN(CC2CO2)CC1 (configuration not stated)	-0.84
CCCCCCCNC(=O)c1ccccc1	3.94
COc1ccc(C(=O)O)cc1	1.96
Cn1cc2ccc([N+](=O)[O-])cc2n1	1.76
COc1ccc(OC)c(Cc2cnc3nc(N)nc(N)c3c2C)c1	2.13
CC(C)(C)C(=O)Nc1ccccc1	1.99

Structure (SMILES)	logP
OC[C@@H](O)[C@@H](O)CO	-2.29
C[C@](N)(C(=O)O)c1cccc2ccccc12	-0.22
COC(=O)c1ccccc1N	1.88
c1ccc2cnncc2c1	0.57
COc1cccc(CNC(=O)C2(O)C(C)CC3C4CCC5=CC(=O)C=CC5(C)C4(F)C(O)CC32C)c1 (configuration not stated)	3.27
Cn1cnc2c1c(=O)[nH]c(=O)n2C	-0.78
CC(=O)c1ccsc1	1.24
O=[N+]([O-])c1ccccc1F	1.69
COc1cc(S(=O)(=O)CCN(C)Cc2ccccc2)cc(OC)c1OC	2.18
CC(=O)c1ccccc1O	1.92
c1ccc2c(c1)nnc1ccccc12	2.4
CCCNc1nc(NCC)nc(SC(F)F)n1	3.8
CC(=O)Nc1ccccc1Cl	1.28
C[C@@H]1C[C@@]2(C)[C@@H](CC[C@@H]3[C@@H]2CC[C@]2(C)[C@@H](O)CC[C@@H]32)CC1=O	3.99
CC(=O)Cc1ccccc1	1.44
C[C@]12CCC(=O)C=C1C=C[C@@H]1[C@@H]2CC[C@@]2(C)[C@H]1CC[C@@]21CCC(=O)O1	2.68
CC(C)(C)c1ccc(N)cc1	2.7
CCn1cnc([N+](=O)[O-])n1	-0.19
Cc1cc2ccccc2[nH]1	2.53
O=C(O)CCC(=O)c1ccc(-c2ccccc2)cc1	3.2
CNC(=O)ON=C(SC)C(=O)N(C)C	-0.47

Structure (SMILES)	logP
NC(=O)C(Cc1ccccc1)NC(=O)C(N)Cc1ccccc1 (configuration not stated)	1.13
Cc1cccc2cccc(C)c12	4.26
CCCCC(=O)c1ccc[nH]1	2.42
CC=CC (mixture of isomers)	2.33
O=[N+]([O-])c1ccccc1	1.85
ClC(Cl)=C(Cl)Cl	3.4
O=C(O)Cc1cccc(F)c1	1.65
NCCCCCc1ccccn1	1.32
CN(C)C(=O)OCc1cccc(Cl)c1	2.82
O=C(O)c1ccc2c(c1)OCCOCCOCCOCCOCCO2	-0.28
Cc1ncc([N+](=O)[O-])n1CCNC(=O)OC(C)C	0.88
CNC(=O)Oc1cccc(C(C)(C)C)c1	2.93
CCOC(=O)c1ccco1	1.52
O=[N+]([O-])c1cccc2c1ccc[n+]2[O-]	0.49
NCCCNC(=O)c1ccccc1	0.3
COc1cc2c(c(OC)c1OC)-c1ccc(=O)c(OC)cc1C(NC(C)=O)CC2 (configuration not stated)	1
NC(=O)Nc1nc(-c2ccccc2)no1	1.76
CN(C)CC/C=C1\c2ccccc2CSc2ccccc21	4.49
O=C(Cc1ccccc1)NC(CO)C(O)c1ccc([N+](=O)[O-])cc1 (configuration not stated)	1.52

Reference: the OPERA property sets (Mansouri et al. 2018)
